pKd: −log10 of the molar value.
Legend:
[1] = biological target: T1, Hsp90AB1 (Homo sapiens, UniProt P08238); assay: SPR (Biacore, CM5 chip with immobilized protein); also competes with CE-P in HUVEC lysate pull-down; format: binding
T1 construct: recombinant human Hsp90AB1 protein

[2] = biological target: T1, Hsp90AB1; assay: SPR (Biacore, CM5 chip with immobilized protein); also click pull-down of recombinant protein and from HUVEC lysate; format: binding

T1 sequence (P08238 2-724): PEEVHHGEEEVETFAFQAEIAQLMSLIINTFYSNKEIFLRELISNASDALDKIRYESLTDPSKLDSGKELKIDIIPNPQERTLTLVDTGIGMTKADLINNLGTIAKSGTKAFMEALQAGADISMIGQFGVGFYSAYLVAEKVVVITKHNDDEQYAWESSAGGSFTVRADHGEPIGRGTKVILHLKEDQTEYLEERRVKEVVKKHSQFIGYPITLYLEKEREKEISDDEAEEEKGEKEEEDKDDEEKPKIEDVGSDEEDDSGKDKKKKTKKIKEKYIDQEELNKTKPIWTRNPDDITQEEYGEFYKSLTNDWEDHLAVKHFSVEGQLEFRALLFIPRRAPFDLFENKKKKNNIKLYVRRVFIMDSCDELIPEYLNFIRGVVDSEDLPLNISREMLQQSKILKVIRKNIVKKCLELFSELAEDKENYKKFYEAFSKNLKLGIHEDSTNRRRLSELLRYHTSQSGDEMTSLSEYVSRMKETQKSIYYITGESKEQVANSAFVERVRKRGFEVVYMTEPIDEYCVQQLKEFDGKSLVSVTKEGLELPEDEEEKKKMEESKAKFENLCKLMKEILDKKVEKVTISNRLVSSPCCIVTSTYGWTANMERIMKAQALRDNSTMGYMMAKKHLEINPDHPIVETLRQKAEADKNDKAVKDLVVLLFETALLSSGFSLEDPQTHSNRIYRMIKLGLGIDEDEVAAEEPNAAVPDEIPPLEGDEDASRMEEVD

pKd [1] | pKd [2] | Compound
5.63 |  | CC1(C)CC[C@]2(C(=O)O)CC[C@]3(C)C(=CC[C@@H]4[C@@]5(C)CC[C@H](O[C@@H]6O[C@H](C(=O)O)[C@@H](O)[C@H](O)[C@H]6O)C(C)(C)[C@@H]5CC[C@]43C)[C@@H]2C1 [CE, Calenduloside E]
 | 4.63 | C#CCNC(=O)C12CCC(C)(C)C[C@H]1C1=CC[C@@H]3[C@@]4(C)CC[C@H](O[C@@H]5O[C@H](C(=O)O)[C@@H](O)[C@H](O)[C@H]5O)C(C)(C)[C@@H]4CC[C@@]3(C)[C@]1(C)CC2 (some centres unmarked) [VI, CE-P]

Source: publication PMC5974765, “Targets Fishing and Identification of Calenduloside E as Hsp90AB1: Design, Synthesis, and Evaluation of Clickable Activity-Based Probe” (Frontiers in Pharmacology, 2018)
